The values that follow are results of earlier work, collected in patent US20050065183A1 (priority 2003, published 2005).

The data set has as its system muscarinic.

Molecules are shown by their SMILES.

In the case of `CC(C)(C(=O)O)c1ccc(C(O)CCCN2CCC(C(O)(c3ccccc3)c3ccccc3)CC2)cc1` (stereo not drawn) [Fexofenadine, 4-[4-[4-(hydroxydiphenylmethyl)-1-piperidinyl]-1-hydroxybutyl]-α,α-dimethylbenzeneacetic acid], the antimuscarinic activity entry is “weak”.
